Key:
[1] = target: T1, F508delCFTR (Homo sapiens, UniProt P13569, DEL508-508); experiment: Cell Surface Expression-Horse Radish Peroxidase (CSE-HRP) assay, test compound with co-corrector; format: cell-based; conditions: with 2 μM co-corrector; for Maximum % activity (with co-corrector): maximum at any tested concentration, normalized to positive control;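 for Maximum % activity (with co-corrector): percent of 2 µM positive control corrector over DMSO; co-corrector is that same compound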
T1 construct: expressed in transfected cells; host or cells: CFBE41o- human lung-derived epithelial cells (CFBE41o-F508delCFTR-HRP), doxycycline-inducible
T1 sequence (P13569 with tags, fused parts or gaps DEL508-508): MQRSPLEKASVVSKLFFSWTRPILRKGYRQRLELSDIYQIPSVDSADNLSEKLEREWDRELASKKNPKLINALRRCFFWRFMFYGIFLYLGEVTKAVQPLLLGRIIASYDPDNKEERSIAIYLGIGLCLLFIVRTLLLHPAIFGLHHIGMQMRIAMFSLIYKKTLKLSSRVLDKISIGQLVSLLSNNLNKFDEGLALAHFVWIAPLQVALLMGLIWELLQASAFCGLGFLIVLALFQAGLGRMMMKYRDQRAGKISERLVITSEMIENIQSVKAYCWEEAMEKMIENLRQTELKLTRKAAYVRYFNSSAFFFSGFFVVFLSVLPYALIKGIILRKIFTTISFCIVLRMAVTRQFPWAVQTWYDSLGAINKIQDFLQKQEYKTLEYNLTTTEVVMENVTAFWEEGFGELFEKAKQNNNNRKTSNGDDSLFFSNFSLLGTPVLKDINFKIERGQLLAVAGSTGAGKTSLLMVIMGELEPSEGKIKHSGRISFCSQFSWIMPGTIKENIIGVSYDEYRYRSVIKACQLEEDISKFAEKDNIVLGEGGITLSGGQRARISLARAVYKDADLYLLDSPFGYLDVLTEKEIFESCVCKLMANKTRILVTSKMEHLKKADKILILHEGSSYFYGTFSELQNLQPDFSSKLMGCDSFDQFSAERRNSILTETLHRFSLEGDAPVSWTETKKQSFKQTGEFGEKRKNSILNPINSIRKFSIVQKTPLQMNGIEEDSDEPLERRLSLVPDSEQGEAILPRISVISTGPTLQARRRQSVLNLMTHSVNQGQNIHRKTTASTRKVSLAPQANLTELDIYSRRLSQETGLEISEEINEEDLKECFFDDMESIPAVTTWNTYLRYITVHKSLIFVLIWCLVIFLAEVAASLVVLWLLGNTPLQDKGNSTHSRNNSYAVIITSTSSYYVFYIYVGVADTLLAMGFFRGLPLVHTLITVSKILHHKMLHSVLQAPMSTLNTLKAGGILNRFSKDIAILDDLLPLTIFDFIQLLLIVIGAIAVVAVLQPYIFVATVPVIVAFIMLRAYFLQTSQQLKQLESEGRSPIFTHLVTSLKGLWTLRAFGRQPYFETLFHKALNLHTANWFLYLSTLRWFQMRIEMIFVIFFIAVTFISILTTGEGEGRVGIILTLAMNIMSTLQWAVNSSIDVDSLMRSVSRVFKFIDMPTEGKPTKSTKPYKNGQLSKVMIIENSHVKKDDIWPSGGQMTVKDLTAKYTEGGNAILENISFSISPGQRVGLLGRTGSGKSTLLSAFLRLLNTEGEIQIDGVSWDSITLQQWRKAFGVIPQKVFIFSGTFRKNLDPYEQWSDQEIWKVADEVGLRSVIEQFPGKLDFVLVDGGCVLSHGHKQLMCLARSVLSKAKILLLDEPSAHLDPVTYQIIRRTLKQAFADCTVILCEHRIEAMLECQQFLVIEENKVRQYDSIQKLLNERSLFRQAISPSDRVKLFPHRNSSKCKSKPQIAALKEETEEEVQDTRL
How it was run: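 CFBE41o- cells expressing F508delCFTR with HRP in the fourth exofacial loop, induced with 0.5 μg/mL doxycycline for 72 h, then treated 18-24 h at 33° C. with compound (8 points, top 20 μM, 3-fold) plus 2 μM co-corrector. Surface HRP read by luminol luminescence; activity normalised to positive control, EC50 from variable-slope sigmoidal fit.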

[2] = target: T1, F508delCFTR; experiment: Cell Surface Expression-Horse Radish Peroxidase (CSE-HRP) assay, test compound without co-corrector; format: cell-based; conditions: for Emax: maximum at any tested concentration, normalized to positive control, without co-corrector; for EC50: test compound without co-corrector;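 for Emax: percent of on-plate 2 µM positive control corrector response over DMSO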
How it was run: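 CFBE41o- cells expressing F508delCFTR with HRP in the fourth exofacial loop, induced with 0.5 μg/mL doxycycline for 72 h at 37° C, then exposed to compound alone for 18-24 h at 33° C, 8-point 3-fold series from 20 μM. Surface HRP read by luminol luminescence, normalized to positive corrector control versus DMSO; EC50 from variable-slope sigmoidal fit of three replicate plates.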

| SMILES | Maximum % activity (with co-corrector) [1] | EC50 [1] [µM] | Emax [2] [%] | EC50 [2] [µM] |
| --- | --- | --- | --- | --- |
| COc1cccc2c1CCC2C(=O)NS(=O)(=O)c1ccc(NC(=O)CC(C)=O)cc1 (stereo not drawn) [III-36] | + (<150) | ≥ 10 | < 50 | ≥ 10 |
| COc1cccc2c1CCC2C(=O)NS(=O)(=O)c1ccc(Cl)cc1Cl (stereo not drawn) [III-37] | + (<150) | ≥ 10 | < 50 | ≥ 10 |
| COc1cccc2c1CCC2C(=O)NS(=O)(=O)c1cc(C)c(N)cc1Cl (stereo not drawn) [III-38] | ++ (≥150 and <350) | 3 to 10 | < 50 | ≥ 10 |
| COc1cccc2c1CCC2C(=O)NS(=O)(=O)c1cc(C)ccc1Cl (stereo not drawn) [III-39] | + (<150) | ≥ 10 | < 50 | ≥ 10 |
| COc1cccc2c1CCC2C(=O)NS(=O)(=O)c1cc([N+](=O)[O-])ccc1Cl (stereo not drawn) [III-40] | + (<150) | ≥ 10 | < 50 | ≥ 10 |
| COc1cccc2c1CCC2C(=O)NS(=O)(=O)c1ccc(NC(C)=O)cc1 (stereo not drawn) [III-41] | + (<150) | ≥ 10 | < 50 | ≥ 10 |
| COc1cccc2c1CCC2C(=O)NS(=O)(=O)c1c(C)nn(C)c1Cl (stereo not drawn) [III-44] | + (<150) | ≥ 10 | < 50 | ≥ 10 |
| COc1cccc2c1CCC2C(=O)NS(=O)(=O)c1c(C)nc(O)nc1O (stereo not drawn) [III-45] | + (<150) | ≥ 10 | < 50 | ≥ 10 |
| COc1cccc2c1CCC2C(=O)NS(=O)(=O)c1ccc(C#N)cc1 (stereo not drawn) [III-46] | + (<150) | ≥ 10 | < 50 | ≥ 10 |
| CCOC(=O)c1ccc(S(=O)(=O)NC(=O)C2CCc3c(OC)cccc32)cc1 (stereo not drawn) [III-48] | + (<150) | ≥ 10 | < 50 | ≥ 10 |
| COc1cccc2c1CCC2C(=O)NS(=O)(=O)c1ccc(C)c([N+](=O)[O-])c1C (stereo not drawn) [III-49] | ++ (≥150 and <350) | 3 to 10 | < 50 | ≥ 10 |
| COc1cccc2c1CCC2C(=O)NS(=O)(=O)c1cc(C(=O)Nc2c(C)cccc2C)c(O)cc1Cl (stereo not drawn) [III-50] | + (<150) | ≥ 10 | < 50 | ≥ 10 |
| CCN1CCC[C@H]1CNC(=O)c1cc(S(=O)(=O)NC(=O)C2CCc3c(OC)cccc32)ccc1OC (stereo partly drawn) [III-52] | + (<150) | ≥ 10 | < 50 | ≥ 10 |
| CCOc1ccc2nc(S(=O)(=O)NC(=O)C3CCc4c(OC)cccc43)sc2c1 (stereo not drawn) [III-53] | + (<150) | ≥ 10 | < 50 | ≥ 10 |
| COc1cccc2c1CCC2C(=O)NS(=O)(=O)c1ccc(N2CCN(CC[C@@H]3OCCc4ccccc43)CC2)cc1 (stereo partly drawn) [III-55] | + (<150) | 3 to 10 | < 50 | ≥ 10 |
| COc1cccc2c1CCC2C(=O)NS(=O)(=O)c1nc2c(=O)n(C)c(=O)n(C)c2n1Cc1ccccc1 (stereo not drawn) [III-60] | + (<150) | ≥ 10 | < 50 | ≥ 10 |
| COc1cccc2c1CCC2C(=O)NS(=O)(=O)c1cccc(F)c1C#N (stereo not drawn) [III-62] | + (<150) | 3 to 10 | < 50 | ≥ 10 |
| COc1cccc2c1CCC2C(=O)NS(=O)(=O)c1cccc(C#N)c1 (stereo not drawn) [III-64] | + (<150) | ≥ 10 | < 50 | ≥ 10 |
| COc1cccc2c1CCC2C(=O)NS(=O)(=O)c1cncc(Br)c1 (stereo not drawn) [III-65] | + (<150) | ≥ 10 | < 50 | ≥ 10 |
| COc1cccc2c1CCC2C(=O)NS(=O)(=O)c1ccc(O)nc1 (stereo not drawn) [III-66] | + (<150) | ≥ 10 | < 50 | ≥ 10 |
| COc1cccc2c1CCC2C(=O)NS(=O)(=O)c1c(C(=O)OC(C)(C)C)c(C)nn1C (stereo not drawn) [III-68] | + (<150) | ≥ 10 | < 50 | ≥ 10 |
| COc1cccc2c1CCC2C(=O)NS(=O)(=O)c1cc(Cl)ccc1F (stereo not drawn) [III-73] | + (<150) | ≥ 10 | < 50 | ≥ 10 |
| COc1cccc2c1CCC2C(=O)NS(=O)(=O)c1cc(F)ccc1F (stereo not drawn) [III-74] | + (<150) | ≥ 10 | < 50 | ≥ 10 |
| COc1cccc2c1CCC2C(=O)NS(=O)(=O)c1cc(F)ccc1Cl (stereo not drawn) [III-75] | + (<150) | ≥ 10 | < 50 | ≥ 10 |
| COc1cccc2c1CCC2C(=O)NS(=O)(=O)c1c(Cl)cccc1Cl (stereo not drawn) [III-76] | + (<150) | ≥ 10 | < 50 | ≥ 10 |
| COCCn1cc(S(=O)(=O)NC(=O)C2CCc3c(OC)cccc32)cn1 (stereo not drawn) [III-78] | + (<150) | ≥ 10 | < 50 | ≥ 10 |
| COc1cccc2c1CCC2C(=O)NS(=O)(=O)c1c(C)noc1C (stereo not drawn) [III-79] | + (<150) | ≥ 10 | < 50 | ≥ 10 |
| COc1cccc2c1CCC2C(=O)NS(=O)(=O)c1sc(C)nc1C (stereo not drawn) [III-80] | + (<150) | ≥ 10 | < 50 | ≥ 10 |

The next lines start with the values.

| Maximum % activity (with co-corrector) [1] | EC50 [1] [µM] | Emax [2] [%] | EC50 [2] [µM] | SMILES |
| --- | --- | --- | --- | --- |
| + (<150) | ≥ 10 | < 50 | ≥ 10 | COc1cccc2c1CCC2C(=O)NS(=O)(=O)c1ccc(NC(C)=O)cc1Cl (stereo not drawn) [III-42] |
| + (<150) | ≥ 10 | < 50 | ≥ 10 | CCCC(=O)Nc1ccc(S(=O)(=O)NC(=O)C2CCc3c(OC)cccc32)cc1 (stereo not drawn) [III-43] |
| + (<150) | ≥ 10 | < 50 | ≥ 10 | COc1cccc2c1CCC2C(=O)NS(=O)(=O)c1ccc2oc(=O)ccc2c1 (stereo not drawn) [III-47] |
| + (<150) | ≥ 10 | < 50 | ≥ 10 | COc1cccc2c1CCC2C(=O)NS(=O)(=O)c1c(C)nn(CCCl)c1C (stereo not drawn) [III-51] |
| + (<150) | ≥ 10 | < 50 | ≥ 10 | CCCCCC(=O)c1ccc(S(=O)(=O)NC(=O)C2CCc3c(OC)cccc32)cc1 (stereo not drawn) [III-54] |
| +++ (≥350) | 3 to 10 | 50 to 150 | 3 to 10 | COc1cccc2c1CCC2C(=O)NS(=O)(=O)c1ccccc1C(=O)OC(C)C (stereo not drawn) [III-56] |
| + (<150) | ≥ 10 | < 50 | ≥ 10 | COc1cccc2c1CCC2C(=O)NS(=O)(=O)c1ccc(NCCC(C)(C)O)c([N+](=O)[O-])c1 (stereo not drawn) [III-57] |
| ++ (≥150 and <350) | 3 to 10 | < 50 | 3 to 10 | COc1cccc2c1CCC2C(=O)NS(=O)(=O)c1cc(-c2nc3c([nH]2)c(=O)n(C)c(=O)n3C)ccc1Cl (stereo not drawn) [III-58] |
| + (<150) | ≥ 10 | < 50 | ≥ 10 | COc1cccc2c1CCC2C(=O)NS(=O)(=O)c1nc2c(c(=O)n(C)c(=O)n2C)n1Cc1ccc(Cl)cc1 (stereo not drawn) [III-59] |
| + (<150) | ≥ 10 | < 50 | ≥ 10 | COc1cccc2c1CCC2C(=O)NS(=O)(=O)c1ccc(CN(C)C)cc1 (stereo not drawn) [III-61] |
| + (<150) | ≥ 10 | < 50 | ≥ 10 | COc1cccc2c1CCC2C(=O)NS(=O)(=O)c1ccc(O)c([N+](=O)[O-])c1 (stereo not drawn) [III-63] |
| + (<150) | ≥ 10 | < 50 | ≥ 10 | COc1cccc2c1CCC2C(=O)NS(=O)(=O)c1c(CO)c(C)nn1C (stereo not drawn) [III-69] |
| + (<150) | ≥ 10 | < 50 | ≥ 10 | COc1cccc2c1CCC2C(=O)NS(=O)(=O)c1cccc(Cl)c1F (stereo not drawn) [III-70] |
| ++ (≥150 and <350) | 3 to 10 | < 50 | ≥ 10 | COc1cccc2c1CCC2C(=O)NS(=O)(=O)c1c(F)cccc1F (stereo not drawn) [III-71] |
| + (<150) | ≥ 10 | < 50 | ≥ 10 | COc1ccc2c(c1OC)CCC2C(=O)NS(=O)(=O)c1ccccc1C (stereo not drawn) [III-72] |
| + (<150) | ≥ 10 | < 50 | ≥ 10 | COc1cccc2c1CCC2C(=O)NS(=O)(=O)c1ccc(F)cc1F (stereo not drawn) [III-77] |
| + (<150) | ≥ 10 | < 50 | ≥ 10 | COc1cccc2c1CCC2C(=O)NS(=O)(=O)c1cccnc1 (stereo not drawn) [III-81] |

— patent US20180244611A1, “Modulators of the Cystic Fibrosis Transmembrane Conductance Regulator Protein and Methods of Use” (AbbVie S.à.r.l., priority 2017, published 2018)
